Measured values: the supplement of paper PMC4858399

What was measured:
Conditions in all cases: exposure time 48 h
[1] = test system: Caenorhabditis elegans N2; assay: mean nematode size ln(EXT) after 48 h, plate-adjusted (DMSO control set to 6) (ln(EXT), control-adjusted); higher = larger nematodes / less growth inhibition
Outline: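 Synchronised C. elegans N2 L1 larvae were grown for 48 h at 20°C in K-medium containing killed OP50, 1% DMSO and 0.5–200 µM chemical, at 50 per well and 4–6 wells per treatment. The Biosort recorded extinction for each worm, and a growth model removed debris. Worm size was obtained by natural-logging these values and averaging them per well. For plate adjustment, the vehicle control mean was subtracted and 6 was added.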

[2] = test system: Caenorhabditis elegans N2; assay: AC50 for larval growth inhibition (Hill fit); higher = less potent
Outline: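 Synchronised C. elegans N2 L1 larvae, 50 per well in 96-well plates, were grown at 20°C for 48 h in K-medium with killed OP50, 1% DMSO and 0.5–200 µM chemical. Worm size was read on a COPAS Biosort as extinction, log-transformed and averaged per well, and only wells holding at least 10 worms were kept. AC50 was obtained by a constrained Hill fit using weighted genetic-algorithm regression, with out-of-range values censored.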

[3] = test system: Caenorhabditis elegans N2; assay: lowest effective concentration for larval growth inhibition (size below effect threshold); higher = less potent
Outline: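 Worm size was taken as per-worm extinction on the Biosort, log-transformed and turned into well means. The larvae (C. elegans N2, L1 stage, 50 per 96-well) had spent 48 h at 20°C in K-medium with killed bacteria, 1% DMSO and 0.5, 1, 5, 10, 50, 100 or 200 µM chemical. The lowest effective concentration marks the first dose where the plate-adjusted mean size drops under a cutoff and remains under it at every higher dose; the cutoff is 5.665.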

| Compound | mean nematode size ln(EXT) (ln) ([1]; 0.5 µM) | mean nematode size ln(EXT) (ln) ([1]; 1 µM) | mean nematode size ln(EXT) (ln) ([1]; 5 µM) | mean nematode size ln(EXT) (ln) ([1]; 10 µM) | mean nematode size ln(EXT) (ln) ([1]; 50 µM) | mean nematode size ln(EXT) (ln) ([1]; 100 µM) | mean nematode size ln(EXT) (ln) ([1]; 200 µM) | AC50 for larval growth inhibition [2] [µM] | lowest effective concentration [3] [µM] |
| --- | --- | --- | --- | --- | --- | --- | --- | --- | --- |
| CC(=O)NC1(c2cccc(F)c2)CCN(CC[C@@]2(c3ccc(Cl)c(Cl)c3)CN(c3ccccc3)C(=O)CO2)CC1 | 5.89 | 5.91 | 5.85 | 5.88 | 5.82 | 5.52 | 5.02 | > 200 | 100 |
| CC(C)(O)c1cnn2c(-c3ccc(F)c(-c4c(F)cccc4C#N)c3)cnc2n1 | 5.88 | 5.79 | 5.71 | 5.8 | 5.82 | 5.66 | 5.05 | > 200 | 100 |
| CC(C)(O)c1coc(S(=O)(=O)NC(=O)Nc2c3c(cc4c2CCC4)CCC3)c1 | 5.93 | 6.15 | 6.24 | 6.2 | 6.09 | 5.98 | 5.63 | 111 | 200 |
| CC(C)CCCCCCOC(=O)C1CCCCC1C(=O)OCCCCCCC(C)C (stereo unspecified) | 5.92 | 5.97 | 5.87 | 5.9 | 5.87 | 5.84 | 5.66 | > 200 | 200 |
| CC(C)c1nnc2ccc(-c3ocnc3-c3cc(F)ccc3F)cn12 | 5.79 | 5.88 | 5.84 | 5.82 | 5.82 | 5.79 | 5.53 | > 200 | 200 |
| CC(Cc1ccc(OCC(=O)O)cc1)NCC(O)c1csc(C(F)(F)F)n1 (stereo unspecified) | 5.86 | 5.88 | 5.84 | 6.03 | 5.84 | 5.89 | 5.4 | > 200 | 200 |
| CCC(C)N(C)C(=O)c1cc2ccccc2c(-c2ccccc2Cl)n1 (stereo unspecified) | 5.92 | 5.93 | 5.99 | 5.97 | 6.11 | 5.55 | 5.43 | 95.2 | 100 |
| CCCOc1sc(C(=O)N2CCC(c3cc(CN)ccc3F)CC2)c(C)c1Br | 5.68 | 5.67 | 5.54 | 4.86 | 3.73 | 3.92 |  | 9.86 | 5 |
| CCOC(=O)COc1ccc2c(c1)CC(NCC(O)c1cccc(Cl)c1)CC2 (stereo unspecified) | 5.79 | 5.81 | 5.87 | 5.81 | 5.76 | 5.75 | 5.5 | > 200 | 200 |
| CCOC(=O)c1ccc(C2CCC(NC[C@H](O)COc3ccc(O)c(NS(C)(=O)=O)c3)CC2)cc1 (stereo partly specified) | 5.91 | 5.88 | 5.77 | 5.77 | 5.7 | 5.57 | 5.48 | > 200 | 100 |
| CCOc1ccc2[nH]cc(C(=O)NCc3ccccc3)c(=O)c2n1 | 5.85 | 5.84 | 5.84 | 5.96 | 5.91 | 5.86 | 5.63 | > 200 | 200 |
| CCOc1cccc(C2(N3CCN(c4ccccc4)CC3)CCC(C)CC2)c1 (stereo unspecified) | 5.73 | 5.87 | 5.72 | 5.79 | 5.69 | 5.67 | 5.56 | > 200 | 200 |
| CC[C@@H]1C[C@H](N(Cc2cc(C(F)(F)F)cc(C(F)(F)F)c2)C(C)=O)c2cc(C(F)(F)F)ccc2N1C(=O)OC(C)C | 5.74 | 6.01 | 5.87 | 5.9 | 5.83 | 5.79 | 5.52 | > 200 | 200 |
| CC[C@H](C)[C@@H](C(=O)O)n1sc2ccccc2c1=O | 5.91 | 6.12 | 6.17 | 6.14 | 6.07 | 5.94 | 5.59 | 105 | 200 |
| CC[C@H]1CC[C@H](NCc2cc3c(cc2OC)[C@H]2C[C@H]2C(=O)N3C)[C@H](c2ccccc2)N1 | 5.85 | 5.81 | 5.87 | 5.86 | 5.77 | 5.85 | 5.48 | > 200 | 200 |
| CCc1cc(SCc2sc(-c3ccc(C(F)(F)F)cc3)nc2CN2CCN(c3ccc(OC)cc3)CC2)ccc1OCC(=O)O | 6 | 5.67 | 5.57 | 4.69 | 4.47 | 4.29 | 3.99 | 9.23 | 5 |
| CCc1nn(C2CCCCC2)c2cc(C3(C#N)CCC(C(=O)O)CC3)ccc12 (stereo unspecified) | 5.91 | 5.88 | 5.86 | 5.93 | 5.81 | 5.67 | 5.45 | > 200 | 200 |
| CN1CCN(Cc2cc(-c3ccc4[nH]c(=O)oc4c3)co2)[C@@H](c2ccc(F)cc2)C1 | 5.7 | 5.65 | 5.75 | 5.61 | 5.3 | 4.92 | 3.58 | 114 | 10 |
| CNCc1ccc(NC(=O)c2c[nH]c3c2C(=O)CCC3)cc1 | 5.9 | 6.14 | 6.21 | 6.19 | 6.15 | 6.09 | 5.65 | > 200 | 200 |
| COc1cc(C(C)C)c2c(c1)S(=O)(=O)N(COc1cc(=O)n3cccc(OCCN4CCCCC4)c3n1)C2=O | 5.91 | 5.92 | 5.88 | 5.88 | 5.87 | 5.72 | 5.47 | > 200 | 200 |
| COc1cccc(-c2ccc(/C=C\CN3CCCCCC3)cc2Cl)c1 | 5.88 | 5.69 | 5.61 | 5.5 | 4.98 | 4.39 |  | 90.6 | 5 |
| CSc1ccc(Oc2ccc(S(N)(=O)=O)cc2CN(C)C)cc1C | 5.74 | 5.87 | 5.86 | 5.84 | 5.83 | 5.69 | 5.17 | > 200 | 200 |
| Cc1cc(CCN2CCN(c3nsc4ccccc34)CC2)cc2c1NC(=O)CC2(C)C | 5.77 | 5.72 | 5.61 | 5.4 | 4.49 | 4.01 | 3.55 | 41.3 | 5 |

| Compound | mean nematode size ln(EXT) (ln) ([1]; 0.5 µM) | mean nematode size ln(EXT) (ln) ([1]; 1 µM) | mean nematode size ln(EXT) (ln) ([1]; 5 µM) | mean nematode size ln(EXT) (ln) ([1]; 10 µM) | mean nematode size ln(EXT) (ln) ([1]; 50 µM) | mean nematode size ln(EXT) (ln) ([1]; 100 µM) | mean nematode size ln(EXT) (ln) ([1]; 200 µM) | AC50 for larval growth inhibition [2] [µM] | lowest effective concentration [3] [µM] |
| --- | --- | --- | --- | --- | --- | --- | --- | --- | --- |
| Cc1cc(NC(=O)C(=O)O)cc(C)c1Oc1ccc(O)c2c1CCC2 | 5.86 | 5.81 | 5.88 | 5.83 | 5.84 | 5.76 | 5.58 | > 200 | 200 |
| Cc1cc(SC2=C(O)C[C@@](CCc3ccc(N)cc3)(C(C)C)OC2=O)c(C(C)(C)C)cc1CO | 5.92 | 6.15 | 6.21 | 6.22 | 6.19 | 6.07 | 5.64 | 186 | 200 |
| Cc1cc2c(cc1C(F)(F)F)N(C(=O)Nc1ccc(Oc3cccnc3C)nc1)CC2 | 5.88 | 5.73 | 5.86 | 5.71 | 5.75 | 5.67 | 5.57 | > 200 | 200 |
| Cc1cc2c3c(c1)C(c1ccccc1)=N[C@@H](NC(=O)c1ccncc1)C(=O)N3CC2 | 5.86 | 5.88 | 5.88 | 5.88 | 5.9 | 5.83 | 5.23 | > 200 | 200 |
| Cc1nccn1-c1ccc(Sc2cccc(C3(C(N)=O)CCOCC3)c2)cc1 | 5.74 | 6.03 | 5.84 | 5.88 | 5.86 | 5.81 | 5.48 | > 200 | 200 |
| Cc1oc(-c2ccccc2)nc1CCOc1cccc2c1ccn2CCC(=O)O | 5.73 | 5.92 | 5.85 | 5.73 | 5.67 | 5.81 | 5.52 | > 200 | 200 |
| Clc1cc(Cl)c2c(c1)N=C1CCCCCN1C2 | 5.91 | 5.88 | 5.72 | 5.8 | 5.67 | 5.54 | 4.82 | > 200 | 100 |
| Fc1ccccc1[C@@H](F)CO[C@H]1CC[C@H](Nc2[nH]cnc3nncc2-3)CC1 | 5.89 | 5.84 | 5.82 | 5.68 | 5.67 | 5.25 | 5.4 | > 200 | 100 |
| N#Cc1ccc(N(CC(N)=O)CC(F)(F)F)cc1C(F)(F)F | 5.89 | 5.86 | 5.91 | 6 | 5.95 | 5.91 | 5.47 | > 200 | 200 |
| NC(=O)N(O)[C@@H]1C=C[C@H](Oc2cccc(Oc3ccc(F)cc3)c2)C1 | 5.9 | 6.14 | 6.17 | 6.17 | 5.89 | 5.05 | 4.86 | 72.9 | 100 |
| NC(=O)N(O)[C@@H]1COc2cc(OCc3ccccc3)ccc21 | 5.86 | 5.87 | 5.82 | 5.77 | 5.84 | 5.81 | 5.59 | > 200 | 200 |
| NCc1cccc(C2CCN(C(=O)c3ccc(C#Cc4ccccc4F)o3)CC2)c1 | 5.96 | 5.71 | 5.61 | 5.42 | 4.45 | 3.28 |  | 31.6 | 5 |
| O=C(NC(=O)c1cc(F)c(F)cc1Cl)Nc1cc(F)ccc1N1CCC(C(=O)O)CC1 | 5.94 | 5.9 | 5.94 | 5.9 | 5.93 | 5.73 | 5.57 | 91.3 | 200 |
| O=C(NO)C1(NS(=O)(=O)c2ccc(Oc3ccc(F)cc3)cc2)CCOCC1 | 5.72 | 6.03 | 5.84 | 5.9 | 5.89 | 5.71 | 5.12 | > 200 | 200 |
| O=C(N[C@H]1CN2CCC1CC2)c1cc2ccoc2cn1 | 5.73 | 5.89 | 5.88 | 5.78 | 5.86 | 5.86 | 5.65 | > 200 | 200 |
| O=C(Nc1ccc2[nH]ccc2c1)c1cc2cc(F)ccc2n1Cc1cccc(F)c1 | 5.77 | 5.57 | 5.5 | 3.83 | 3.84 | 3.62 | 3.51 | 6.54 | 1 |
| O=C(O)c1cccc(C[C@@H]2COc3ccc(OCc4nc5cc(F)ccc5s4)cc3[C@@H]2O)c1 | 5.95 | 5.88 | 5.79 | 5.88 | 5.87 | 5.92 | 5.09 | > 200 | 200 |
| O=C(O)c1ccccc1-n1cc(C(=O)O)c(=O)c2cc(Nc3c(F)cc(F)cc3Cl)c(Cl)cc21 | 5.87 | 5.89 | 5.95 | 5.9 | 5.94 | 5.85 | 5.63 | > 200 | 200 |
| OC12N=C(c3ccccc3)SC1Cc1cc(Cl)ccc12 (stereo unspecified) | 5.69 | 5.74 | 5.5 | 5.45 | 4.53 | 4.08 | 3.96 | 48.6 | 5 |
| CC1(C)CC(N=C=O)CC(C)(CN=C=O)C1 (mixture of isomers) [Isophorone diisocyanate, mixture of isomers] | 5.94 | 5.89 | 5.97 | 5.71 | 5.76 | 5.37 | 4.55 | > 200 | 100 |
| CCCCC(CC)CN1C(=O)C2C3C=CC(C3)C2C1=O (mixture of isomers) [MGK] | 5.99 | 5.99 | 5.97 | 5.98 | 5.81 | 5.84 | 4.3 | 185 | 200 |
| Cc1c(COC(=O)[C@@H]2[C@H](/C=C(\Cl)C(F)(F)F)C2(C)C)cccc1-c1ccccc1 (racemic) [Bifenthrin] | 5.92 | 5.85 | 5.84 | 5.96 | 5.9 | 5.78 | 5.37 | > 200 | 200 |
| CC(C)(C)[C@H](O)[C@H](Cc1ccc(Cl)cc1)n1cncn1 (racemic) [Paclobutrazol] | 5.57 | 5.77 | 5.8 | 5.97 | 5.33 | 5.58 | 4.63 | > 200 | 50 |
